Data as given in ChEMBL document CHEMBL4715753, “Bridging computational modeling with amino acid replacements to investigate GHS-R1a-peptidomimetic recognition” (Eur J Med Chem, 2016).

Biological target: Growth hormone secretagogue receptor type 1 (Homo sapiens, UniProt Q92847)
Experiment: Displacement of [125I-His9]-ghrelin from GHS-R1a (unknown origin) expressed in human HEK293 cells incubated for 20 mins by gamma scintillation counting method
Type: cell-based

Growth hormone secretagogue receptor type 1, sequence (Q92847 whole entry): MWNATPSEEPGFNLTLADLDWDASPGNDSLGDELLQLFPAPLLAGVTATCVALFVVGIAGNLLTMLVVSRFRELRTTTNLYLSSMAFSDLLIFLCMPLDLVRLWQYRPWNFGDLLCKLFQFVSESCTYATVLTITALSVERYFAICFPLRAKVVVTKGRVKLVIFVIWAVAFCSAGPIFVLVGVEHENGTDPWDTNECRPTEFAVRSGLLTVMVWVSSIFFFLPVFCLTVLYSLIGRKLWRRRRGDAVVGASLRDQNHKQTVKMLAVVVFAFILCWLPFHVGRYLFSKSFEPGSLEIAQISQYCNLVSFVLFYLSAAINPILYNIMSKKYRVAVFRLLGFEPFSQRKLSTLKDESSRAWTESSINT

IC50	SMILES
> 10000 nM	C[C@H](NC(=O)C1CCNCC1)C(=O)N[C@H](Cc1ccc2ccccc2c1)C(=O)N[C@@H](Cc1ccccc1)C(=O)N[C@@H](CCCCN)C(N)=O
25 nM	NCCCC[C@H](NC(=O)[C@H](Cc1ccncc1)NC(=O)[C@@H](Cc1ccc2ccccc2c1)NC(=O)[C@@H](Cc1ccc2ccccc2c1)NC(=O)C1CCNCC1)C(N)=O
